Data on 3 compounds can be found in patent US20240287046A1, “COMPOUNDS AND RADIOLIGANDS FOR TARGETING NEUROTENSIN RECEPTOR AND USES THEREOF” (Full-Life Technologies HK Limited, priority 2022, published 2024).

Series [1] has as its target T1, human NTSR-1 (Homo sapiens (Human), UniProt P30989). Description: FLIPR assay, inhibition of Neurotensin-induced intracellular-calcium mobilization. Format: cell-based. The settings on record: for IC50 compared to comparator compound C-2: FLIPR assay; for IC50: HEK293 cells stably expressing human NTSR-1, mean, read-out: IC50 (nM) in FLIPR Assays. On the procedure:
Binding affinities of the representative compounds were also evaluated by FLIPR assay. Neurotensin receptor 1 belongs to the G-protein coupled receptors (GPCR) family. Activation of NTSR-1 by its ligand Neurotensin can induce intracellular-calcium mobilization. In FLIPR assay, the test compound and Neurotensin were incubated together with cells expressing NTSR-1 to measure inhibition of the intracellular-calcium mobilization by the test compound so that to evaluate its binding affinity.
Briefly, HEK293 cells stably expressing human NTSR-1 were plated in 384-well plates. 20 ul cell suspension at a concentration of 10×10^5 per ml was seeded in each well and incubated at 37° C. 5% CO2 overnight. Then the cells in each well were mixed with 20 ul probenecid assay buffer, 20 ul 8 uM Fluo-4 Direct™ Loading Buffer, 6×EC80 of Neurotensin and 10 μl of the diluted test compound, and incubated at 37° C. 5% CO2 for 50 min followed by incubation at room temperature for 10 min. The plate was then subject to FLIPR analysis.
On the technique in general: Calcium flux is commonly read through the fluorescence of an indicator in the cells.

Series [2] deals with T1, human NTSR-1. The series is described as follows: radioligand competitive binding assay using ^177Lu labeled C-1 as reference radioligand. The note with it: Mean IC50 of C-1/Mean IC50 of the test compound. How it is done: The binding affinities of test compounds were determined by a radioligand competitive binding assay using ^177Lu labeled C-1 as the reference radioligand.
Briefly, 100 μL HT-29 cells expressing human NTSR-1 at a density of 1˜2×10^6 cells/mL were mixed with binding buffer (RPMI-1640 medium supplemented with 0.25% bovine serum albumin) in each well of the 96-well filter plate (Millipore). Then the cells in each well were incubated with ^177Lu—C-1 (0.55 μCi/well) and the test compound under 37° C. for 1 hr (n=3). After incubation, unbound ^177Lu—C-1 and the test compound in each well was removed by filtration using a Multiscreen vacuum manifold (Millipore) and the cells were further rinsed with the binding buffer for 5 times. The cells from each well were then collected and radioactivity of the cells in each well was individually measured by y counter (2480 WIZARD2, PerkinElmer). The best-fit IC50 value of test compounds (inhibitory concentration when 50% of the bound ^177Lu—C-1 on cells were displaced) were calculated by fitting the data with nonlinear regression using GraphPad Prism 8.0.1.

The subject of series [3] is ASPC-1 tumor-bearing mice. Description: Biodistribution of radionuclide labeled complexes in ASPC-1 tumor-bearing mice. Type of series: in vivo, BALB/c nude mice. The settings on record: ^177Lu-labeled complex. Put shortly: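 Radiolabeled compound (~30-50 μCi, ~1.11-1.85 MBq, specific activity 30-250 μCi/nmol) was injected i.v. via tail vein into nude mice carrying 0.05-0.50 g subcutaneous NTSR-1-positive human tumors. At set times, tissues were collected, weighed and γ-counted; % ID and % ID/g were calculated.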

For orientation: IC50 means the concentration that inhibits the measured activity by half.

T1 sequence (P30989 whole entry): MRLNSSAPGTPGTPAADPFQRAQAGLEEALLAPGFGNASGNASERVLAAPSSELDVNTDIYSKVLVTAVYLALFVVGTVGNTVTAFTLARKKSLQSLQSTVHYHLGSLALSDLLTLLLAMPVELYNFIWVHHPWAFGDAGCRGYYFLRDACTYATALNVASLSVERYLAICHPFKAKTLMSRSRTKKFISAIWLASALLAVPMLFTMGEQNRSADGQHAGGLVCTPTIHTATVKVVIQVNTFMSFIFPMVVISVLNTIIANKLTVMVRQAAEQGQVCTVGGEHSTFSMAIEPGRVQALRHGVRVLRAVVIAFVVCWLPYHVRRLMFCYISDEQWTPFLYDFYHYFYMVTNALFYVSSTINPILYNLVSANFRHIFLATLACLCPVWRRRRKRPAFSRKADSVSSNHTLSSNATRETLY

In the case of `COc1cccc(OC)c1-c1cc(C(=O)NC2(C(=O)O)C3CC4CC(C3)CC2C4)nn1-c1ccc(NC(=O)CCCN(C)CCCN(C)C(=O)CN2CCN(CC(=O)O)CCN(CC(=O)O)CCN(CC(=O)O)CC2)cc1C(C)C` (centres unmarked) [Compound I-5, 2,2′,2″-(10-(2-((3-((4-((4-(3-((2-carboxyadamantan-2-yl)carbamoyl)-5-(2,6-dimethoxyphenyl)-1H-pyrazol-1-yl)-3-isopropylphenyl)amino)-4-oxobutyl)(methy)amino)propyl)(methyl)amino)-2-oxoethyl)-1,4,7,10-tetraazacyclododecane-1,4,7-triyl)triacetic acid], on human NTSR-1 [1], the “IC50 compared to comparator compound C-2” value was “lower IC50” and the IC50 came to 26.9 nM. In addition, at human NTSR-1 [2], the “Relative Binding Affinity” value was 146.4. In series [3], the “AUC (0-72 h) ratio Tumor/Blood” value is given as 10.0, the “AUC (0-72 h) ratio Tumor/Kidney” value turned out to be 14.2, the “AUC (0-72 h) ratio Tumor/Liver” value amounted to 16.7 and the “AUC (0-72 h) ratio Tumor/Lung” value came to 48.3.
In the case of `COc1cccc(OC)c1-c1cc(C(=O)NC2(C(=O)O)C3CC4CC(C3)CC2C4)nn1-c1ccc(OCCCN(C)CCCN(C)C(=O)CN2CCN(CC(=O)O)CCN(CC(=O)O)CCN(CC(=O)O)CC2)cc1C(C)C` (centres unmarked) [Compound I-7, 2,2′,2″-(10-(2-((3-((3-(4-(3-((2-carboxyadamantan-2-yl)carbamoyl)-5-(2,6-dimethoxyphenyl)-1H-pyrazol-1-yl)-3 isopropylphenoxy)propyl)(methyl)amino)propyl)(methyl)amino)-2-oxoethyl)-1,4,7,10-tetraazacyclododecane-1,4,7-triyl)triacetic acid], at human NTSR-1 [1], the “IC50 compared to comparator compound C-2” value is listed as “lower IC50” and the IC50 stood at 11.7 nM. For the same compound, the “Relative Binding Affinity” value on human NTSR-1 [2] was 156.7. Further, in series [3], the “AUC (0-72 h) ratio Tumor/Blood” value was 34.4, the “AUC (0-72 h) ratio Tumor/Kidney” value came out at 18.1, the “AUC (0-72 h) ratio Tumor/Liver” value was found to be 23.1 and the “AUC (0-72 h) ratio Tumor/Lung” value is listed as 40.1.
Take `COc1cccc(OC)c1-c1cc(C(=O)NC2(C(=O)O)C3CC4CC(C3)CC2C4)nn1-c1ccc(N(CCCN(C)C)C(=O)COCCOCCNC(=O)CN2CCN(CC(=O)O)CCN(CC(=O)O)CCN(CC(=O)O)CC2)cc1C(C)C` (centres unmarked) [Compound I-6]: at human NTSR-1 [1], the “IC50 compared to comparator compound C-2” value is reported as “lower IC50” and the IC50 was found to be 16.2 nM. In addition, the “Relative Binding Affinity” value at human NTSR-1 [2] worked out at 3.1.
